Values after ≈ are worked out from the molar mass of the structure shown.
How the values were obtained:
[1] = tested on: Hamigera avellanea IFO 7721; assay: Antifungal activity against Hamigera avellanea IFO 7721, paper disc method; assay type: cell-based; conditions: IFO7721, paper disc 8 mm diameter, 0.02 ml of a 100 μg/ml solution, pH 7.0, read-out: Antifungal activity, φmm (zone of growth inhibition), Hamigera avellanea IFO 7721
Protocol: On the other hand, the antifungal activity of the test compound is assayed against Hamigera avellanea IFO 7721 by the paper disc method, employing agar plates [each containing the medium consisting of 3.5 g of disodium phosphate 0.5 g monopotassium phosphate, 5 g yeast extract (Difco), 10 g glucose, 15 g agar, 1000 ml distilled water, and adjusted to pH 7.0]. Thus, on the plates inoculated with the above microorganism, the zones of growth inhibition are determined using paper discs (supplied by Toyo Seisakusho, Japan, thin-type, 8 mm diameter) immersed with 0.02 ml of a 100 μg/ml solution of 20-O-acylmaytansinoid compound (I).

Tetrahymena pyriformis W = assay: Antiprotozoal activity against Tetrahymena pyriformis W, serial dilution method; assay type: cell-based; conditions: 28° C., 44 to 48 hours, pH 7.0
Protocol: Then, with Tetrahymena pyriformis W strain used as the test microorganism and a medium composed of 20 g tryptose peptone (Difco), lg yeast extract, 2 g glucose, 1000 ml distilled water and 10 ml of a 1 M phosphate buffer of pH 7.0 as the assay medium, the microorganism is incubated at 28° C. for 44 to 48 hours, and the growth inhibitory activity of said antibiotic compound is assayed by the serial dilution method.

Structure (SMILES)	zone of inhibition at 100 µg/mL [1] [mm]	MIC (Tetrahymena pyriformis W) [µg/mL]
COC1/C=C/C=C(\C)Cc2cc(OC(C)=O)c(Cl)c(c2)N(C)C(=O)CC(OC(=O)C(C)C)C2(C)OC2C(C)C2CC1(O)NC(=O)O2 (stereo not drawn) [PDM-3 20-acetate]	31	2 (≈ 3.02 µM)
COC1/C=C/C=C(\C)Cc2cc(OC(=O)c3ccccc3)c(Cl)c(c2)N(C)C(=O)CC(OC(=O)C(C)C)C2(C)OC2C(C)C2CC1(O)NC(=O)O2 (stereo not drawn) [PDM-3 20-benzoate]	35	–
CCCC(=O)Oc1cc2cc(c1Cl)N(C)C(=O)CC(OC(=O)C(C)C)C1(C)OC1C(C)C1CC(O)(NC(=O)O1)C(OC)/C=C/C=C(\C)C2 (stereo not drawn) [PDM-3 20-butyrate]	40	–
C/C=C/C(=O)Oc1cc2cc(c1Cl)N(C)C(=O)CC(OC(=O)C(C)C)C1(C)OC1C(C)C1CC(O)(NC(=O)O1)C(OC)/C=C/C=C(\C)C2 (stereo not drawn) [PDM-3 20-crotonate]	35	–
COC1/C=C/C=C(\C)Cc2cc(OC(=O)C3CCCCC3)c(Cl)c(c2)N(C)C(=O)CC(OC(=O)C(C)C)C2(C)OC2C(C)C2CC1(O)NC(=O)O2 (stereo not drawn) [PDM-3 20-cyclohexylcarboxylate, PDM-3 20-cyclohexanecarboxylate]	22	–
COC1/C=C/C=C(\C)Cc2cc(OC(=O)C(C)C)c(Cl)c(c2)N(C)C(=O)CC(OC(=O)C(C)C)C2(C)OC2C(C)C2CC1(O)NC(=O)O2 (stereo not drawn) [PDM-3 20-i-butyrate, PDM-3 20-isobutyrate]	40	–
COC1/C=C/C=C(\C)Cc2cc(OC(=O)CC(C)C)c(Cl)c(c2)N(C)C(=O)CC(OC(=O)C(C)C)C2(C)OC2C(C)C2CC1(O)NC(=O)O2 (stereo not drawn) [PDM-3 20-i-valerate, PDM-3 20-isovalerate]	44	2 (≈ 2.84 µM)
COC1/C=C/C=C(\C)Cc2cc(OC(=O)c3ccccc3Br)c(Cl)c(c2)N(C)C(=O)CC(OC(=O)C(C)C)C2(C)OC2C(C)C2CC1(O)NC(=O)O2 (stereo not drawn) [PDM-3 20-o-bromobenzoate, PDM-3 20-ortho-bromobenzoate]	27	–
COC1/C=C/C=C(\C)Cc2cc(OC(=O)Cc3ccccc3)c(Cl)c(c2)N(C)C(=O)CC(OC(=O)C(C)C)C2(C)OC2C(C)C2CC1(O)NC(=O)O2 (stereo not drawn) [PDM-3 20-phenylacetate]	31	–
COC1/C=C/C=C(\C)Cc2cc(OC(=O)Nc3ccccc3)c(Cl)c(c2)N(C)C(=O)CC(OC(=O)C(C)C)C2(C)OC2C(C)C2CC1(O)NC(=O)O2 (stereo not drawn) [PDM-3 20-phenylcarbamate]	16.5	≤ 1
COC1/C=C/C=C(\C)Cc2cc(OC(=O)c3ccccn3)c(Cl)c(c2)N(C)C(=O)CC(OC(=O)C(C)C)C2(C)OC2C(C)C2CC1(O)NC(=O)O2 (stereo not drawn) [PDM-3 20-picolinate]	21	2 (≈ 2.75 µM)
CCC(=O)Oc1cc2cc(c1Cl)N(C)C(=O)CC(OC(=O)C(C)C)C1(C)OC1C(C)C1CC(O)(NC(=O)O1)C(OC)/C=C/C=C(\C)C2 (stereo not drawn) [PDM-3 20-propionate]	34	2 (≈ 2.95 µM)
CCCCC(=O)Oc1cc2cc(c1Cl)N(C)C(=O)CC(OC(=O)C(C)C)C1(C)OC1C(C)C1CC(O)(NC(=O)O1)C(OC)/C=C/C=C(\C)C2 (stereo not drawn) [PDM-3 20-valerate]	44	–

From US4294757A, “20-O-Acylmaytansinoids” (Takeda Chemical Industries, Ltd, priority 1979, dated 1981)
